# Assay results reported in US7815905B2, “Methods of increasing insulin sensitivity or decreasing insulin secretion by administering corticotropin releasing factor receptor-2 inhibitors” (Research Development Foundation, priority 2006, dated 2010).
# “Also recorded” adds a separate entry of the source. Ends that are not written are not given here.
# Assays:
# MIN6 cells = assay: Ucn 3 secretion from MIN6 cells (Ucn 3 RIA); type: cell-based, mouse; settings: for Ucn 3 secretion in the presence of 2.8 mM glucose / Ucn 3 release in the presence of 10 mM glucose: 2 h at 37° C.
# Source text: FIG. 8a-e: Elevation of pancreatic Ucn 3 expression in diabetic rodent models and stimulation of Ucn 3 release from β cells by glucose. (a) Representative agarose gel electrophoresis showing Ucn 3 and S-16 (control) PCR products. (b) Summary of Ucn 3 expression in ob/ob obese mice and the wildtype (WT) littermates. *: p<0.05 vs WT. (c) Ucn 3 mRNA levels in the pancreas of high fat fed rats (HF) and chow fed controls (Ctrl). *: p<0.05 vs Ctrl. (d) Ucn 3 secretion from MIN6 cells in response to various glucose concentrations. (e) Ucn 3 release from MIN6 cells, in response to glucose and/or insulin secretagogues.
# Ucn 3 secretion from P cells was studied using a mouse clonal P cell line, MIN6, as a model. For these studies MIN6 cells (Miyazaki et al., 1990) were cultured in DMEM supplemented with 10% fetal bovine serum (FBS), and 114 μm β-mercaptoethanol. To assess Ucn 3 secretion, the cells were seeded in 6-well plates and allowed to recover for 48 hrs. The cells were then washed twice with HEPES-balanced Krebs-Ringer bicarbonate buffer (HKRB) containing 5 mM glucose and 0.2% BSA and were incubated in HKRB with various testing reagents for 2 h at 37° C. The incubation buffer was collected and vacuum-dried for Ucn 3 RIA. Exendin-4 and diazoxide and carbachol were purchased from Phoenix Pharmaceuticals (Belmont, Calif.), and Sigma (St. Louis, Mo.), respectively. […] The effect of glucose on Ucn 3 secretion plateaued at 16.8 mM.
# isolated rat islets = assay: Insulin secretion from isolated rat islets; type: cell-based; settings: 10 nM in the presence of 8.4 mM glucose
# Experimental: FIG. 4a-b: The effect of CRFR2 antagonist on insulin secretion in isolated rat islets. (a) The effect of astressin2B (Ast2-B) on insulin secretion in response to glucose in isolated rat islets. […] The asterisk indicates a statistically significant difference between results from the control versus Ast2-B. (b) Isolated rat isles were pre-treated with anti-Ucn 3 IgG or control IgG followed by addition of indicated concentration of glucose. Y-axis indicates insulin secretion from the treated islets. The double asterisks indicate a statistically significant difference between the indicated treatments. […]
# To assess the effect of CRFR2 antagonism on islet cell function secretion of insulin from isolated rat islets was studied. […] Thus, activation of CRFR2 by endogenous ligands is involved in insulin secretion induced by high levels of glucose.
# In order to determine the role of Ucn 3 in glucose induced insulin secretion, isolated rat islets were pretreated with an anti-Ucn 3 IgG prior to glucose treatment.
# [1] = system: insulin signaling in C2C12 myotubes; assay: Phosphorylation studies of insulin signaling in C2C12 myotubes; type: cell-based; settings: pretreatment with the PKA inhibitor
# Experimental: FIG. 3a-l: Urocortin 2 effects on muscle glucose uptake are mediated by inhibition of insulin signaling. (a-f). Ucn 2 inhibits the insulin-induced Akt and ERK1/2 phosphorylation but not the insulin receptor phosphorylation. Differentiated C2C12 myotubes were pre-incubated with or without Ucn 2 peptide (0.1, 1 or 10 nM) for 1 hour prior to insulin treatment (10 nM, 5 min). Cell lystates were resolved using 4-12% gradient polyacrylamide gels. Gels were electrophorectically transferred to membranes and probed with antibodies specific for the phospho proteins pAkt (Ser 473), pERK1/2 or pIR (Tyr1146). Stimulation of Akt, ERK or insulin receptor (IR) activation was calculated by fold activation of the phosphorylated form normalized to total and compared with the untreated controls (a, d and f, graphs). […] (g-j) Ucn 2 treatment increases the phosphorylation of serine residue 307 and not the tyrosin phosphorylation of IRS-1. Myotube cells, treated with or without PKA inhibitor (H-89), were incubated with insulin and different concentrations of Ucn 2. IRS-1 immunoprecipitated proteins were electrophoresed as before and the immunoblots were probed for phosphorylated tyrosin (g), phosphorylated serine 307 IRS-1 (i) and total IRS-1 (g, i). […] (k) The effect of Ucn 2 on [^3H]2-deoxy-D-glucose uptake in differentiated C2C12 myotubes. Cells were incubated for 2 hours in low glucose, serum free medium and treated with Ucn 2 (0.1, 1 or 10 nM) or without (control) for 30 min prior to insulin administration (10 nM). Glucose uptake was measured 5 min following exposure to [^3H]2-deoxy-D-glucose. Non-specific uptake was measured by incubating muscle tissue with cytochalasin B, which binds to the glucose uptake transporter (GLUT) and inhibits glucose transport into the cell. Specific uptake was calculated by subtracting non specific from total glucose. (l) Schematic representation of the putative cellular mechanisms mediating the effect of Ucn 2 and CRFR2 on the insulin signaling and glucose uptake in skeletal muscle cells. * indicates p<0.05 vs. no treatment. # indicates p<0.05 vs. insulin treatment (b, d, f) or p<0.05 vs. insulin treatment and Ucn 2 (i).
# Differentiated C2C12 myotubes were pre-incubated with or without Ucn 2 peptide (0.1, 1 or 10 nM) for 1 hour prior to insulin treatment (10 nM, 5 min). Cells were harvested immediately in 100 μl of sample treatment buffer [STB, 50 mM Tris (pH 6.8), 100 mM dithiothreitol, 2% (wt/vol) sodium dodecyl sulfate, 0.1% (wt/vol) bromphenol blue, and 10% (wt/vol) glycerol]. The samples were boiled for 5 min, proteins were electrophoresed on 4-12% sodium dodecyl sulfate-polyacrylamide gradient gel (Invitrogen Life Technologies), subsequently transferred onto nitrocellulose membranes, and probed with antibodies specific for phosphorylated Akt (Ser 473, Cell Signaling Technology, Inc., Beverly, Mass.), phosphorylated ERK1/2-p42, 44 (Santa Cruz Biotechnology, Inc., Santa Cruz, Calif.), phosphorylated insulin receptor (Tyr 1146, Cell Signaling Technology, Inc.), or phosphorylated IRS1 (Ser 307, Upstate Cell Signaling Solutions, Lake placid, NY). The membranes were washed with phosphate buffer saline containing 0.05% (vol/vol) Tween 20 and incubated with horseradish peroxidase-conjugated anti mouse or rabbit IgG raised in sheep (Amersham Biotech Pharmacia). Immunoreactive proteins were visualized using Super Signal West Pico Chemiluminescent substrate (Pierce, Rockford, Ill.). The relative protein levels were determined using densitometry (Image quant 1.2) by probing the membranes with antibodies directed against total proteins.
# [2] = system: C57/B6 mice fed with high fat diet; assay: Ucn 3 treatment of high fat diet fed mice; type: in vivo, mouse; settings: high fat diet 16 weeks; 30 μg/kg i.p. for 6 days; vs vehicle
# Experimental: FIG. 6: The in vivo effect of Ucn 3 on insulin levels and blood glucose in a mouse model of type 2 diabetes. Wild-type mice were fed a high fat diet for 16 weeks to induce hyperglycemia. The mice were then injected for six days with vehicle alone or vehicle plus 30 μg/Kg of Ucn 3. Following treatment serum glucose (left panel) and serum insulin levels (right panel were determined.
# To directly assess the in vivo activity of Ucn 3 in this model system C57/B6 mice were fed with high fat diet (45% Kcal) for 16 weeks. The mice were then injected i.p. with either vehicle or mouse Ucn 3 (30 μg/kg) for 6 days. […] These studies confirm the role of Ucn 3 in mediating increased insulin response to high blood sugar.
compound,measurement,setting,value
Exendin-4: a long acting GLP-1 analogue,Ucn 3 secretion in the presence of 2.8 mM glucose,MIN6 cells,minimal or moderate
same,Ucn 3 release in the presence of 10 mM glucose,MIN6 cells,significantly stimulated
same,insulin release from isolated islets,isolated rat islets,significantly stimulated; also recorded: stimulated insulin release
C[N+](C)(C)CCOC(N)=O [carbachol],Ucn 3 secretion in the presence of 2.8 mM glucose,MIN6 cells,minimal or moderate
same,Ucn 3 release in the presence of 10 mM glucose,MIN6 cells,significantly stimulated
O=S(=O)(NCCNC/C=C/c1ccc(Br)cc1)c1cccc2cnccc12 [H-89],phosphorylation of IRS-1 on S307 by Ucn 2,[1],completely blocked
CC1=NS(=O)(=O)c2cc(Cl)ccc2N1 [diazoxide],glucose-induced Ucn 3 secretion,"MIN6 cells; pretreatment, 100 μM",effectively blocked
"Ucn 3: Urocortin 3, CRF family member acting as CRFR2 agonist; mouse Ucn 3 (SEQ ID NO:3) (FTLSLDVPTNIMNILFNIDKAKNLRAKAAANAQLMAQI; ends and bridges not checked; listed as Mus musculus)",glucose levels,[2],significantly lower glucose levels
same,insulin levels,[2],"higher insulin levels compared to the control, though the difference was not statistically significant"
